In PubChem BioAssay (NCI) one finds TGI and GI50 data, which are given here for 23 molecules.

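Briefly, cells in 96-well plates were exposed to five compound concentrations for 48 h, and endpoints were estimated by linear interpolation. GI50 is the concentration that inhibits growth by half. The concentration for full growth arrest is given as TGI.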 A value given as a limit tells only on which side of the number the result lay.

What all share (test): inhibition of tumour cell growth, NCI panel, 48 h
Assay [1] has as its system SF-268 CNS.
Assay [2] relates to NCI-H460 lung.
Assay [3] concerns 786-0 renal.
The test system of assay [4] is LOX IMVI melanoma.
Assay [5] relates to SF-295 CNS.
The subject of assay [6] is SNB-19 CNS.
Assay [7] has as its system RXF 393 renal.
Assay [8] concerns SR leukemia.
In assay [9] the test system is PC-3 prostate.
Assay [10] deals with DU-145 prostate.

With `O=C1C2=C(CC3C(C2)C3(Br)Br)C(=O)C2=C1CC1C(C2)C1(Br)Br` (stereo not drawn), the TGI in assay [1], in assay [2], in assay [3], in [4], in assay [5] and in [6] was > 100 µM each time. The TGI in assay [7] and in assay [8] was > 100 µM each time.
`COC(=O)C(=O)C(C(=O)C(=O)Nc1ccc(C)cc1C)c1nc2ccccc2[nH]c1=O` (stereo not drawn): the TGI in assay [1], in assay [2], in [3], in [4], in [5] and in assay [6] was > 100 µM in each case. In addition, the TGI in assay [7] was 60 µM; in [8], > 100 µM.
As for `COc1ccc(C(=O)O)c(Cc2cccc3ccccc23)c1`, the TGI in assay [1], in [2], in assay [3], in assay [4], in assay [5] and in assay [6] was > 100 µM each time. The TGI in assay [7] and in assay [8] was > 100 µM throughout.
Regarding `NC1C2(CCCCCC2)NC(=O)C12CCCCCC2` (stereo not drawn), the TGI in assay [1], in [2], in assay [3], in [4], in assay [5] and in assay [6] was > 100 µM in each case. Besides, the TGI in assay [7] and in assay [8] was > 100 µM throughout.
As for `CCCCNC(=O)NS(=O)(=O)c1ccc(N2N=C(c3ccc(C)cc3C)CC2c2ccc(N(C)C)cc2)cc1` (stereo not drawn), the GI50 in [1] was 5.73 µM; in [2], 3.33 µM; in [3], 5.45 µM; in assay [9] it was 3.34 µM; in assay [4], 4.4 µM; in assay [6] it was 4.59 µM. The figures for the GI50 in [10] and in assay [7] were 5.75 µM and 4.06 µM, respectively. Further, the TGI in [1] is > 100 µM; in assay [2], 15.9 µM; in assay [3], > 100 µM; in assay [9], > 100 µM; in [4], 16.5 µM; in assay [6] it was > 100 µM. Besides, the TGI in assay [10] amounted to 81.1 µM; in [7] it was 15.7 µM.
Regarding `COc1cc([N+](=O)[O-])ccc1NC(=O)C(F)(F)F`, the TGI in assay [1], in assay [2], in assay [3], in assay [9], in assay [4] and in assay [5] was > 100 µM throughout. For the same molecule, the TGI in assay [6], in assay [10] and in [8] was > 100 µM each time.
As to `CCC(C)(O)c1cn(-c2cccc(S(=O)(=O)O)c2)nn1` (stereo not drawn), the TGI in assay [1], in assay [2], in assay [3], in [4], in assay [5] and in assay [6] was > 100 µM in each case. Also, the TGI in assay [7] and in [8] was > 100 µM throughout.
`COc1cc2c3c(n(CCCCl)c(=O)c2cc1OC)-c1ccccc1C3=O`: the GI50 in assay [1] was > 100 µM; in [2], 3.66 µM; in assay [3] it was 12.3 µM; in [9], > 100 µM; in [4], 8.83 µM; in assay [5], 0.845 µM. Also, the GI50 in assay [6] and in assay [10] was > 100 µM in each case. Besides, the TGI in assay [1] is > 100 µM; in [2], > 100 µM; in assay [3] it was > 100 µM; in [9], > 100 µM; in assay [4] it was > 100 µM; in assay [5] it was 13.3 µM. The TGI in assay [6] and in [10] was > 100 µM in each case.
In the case of `C[C@]12CC[C@@H]3c4ccc(Oc5nc(N6CC6)nc(N6CC6)n5)cc4CC[C@H]3[C@@H]1CCC2=O`, the GI50 is 2.05 µM in assay [1]; 0.517 µM in assay [2]; 3.41 µM in [3]; 3.46 µM in assay [9]; 1.37 µM in assay [4]; 1.17 µM in [5]. Further, the GI50 in [6] is 7.25 µM; in assay [10] it was 1.82 µM; in assay [8], 0.351 µM. Also, the TGI in assay [1] is 17.9 µM; in assay [2], 2.79 µM; in assay [3] it was 22.3 µM; in assay [9] it was 21.8 µM; in assay [4] it was 3.1 µM; in assay [5], 15.3 µM. The figures for the TGI in assay [6], in assay [10] and in assay [8] were 21.5 µM, 6.46 µM and 11.4 µM, respectively.
For `NCCCNCCSSCCCCS(=O)O`, the TGI is 40.6 µM in [1]; > 100 µM in assay [2]; > 100 µM in [3]; 21.6 µM in [4]; > 100 µM in assay [5]; > 100 µM in assay [6]. Moreover, the TGI was 79.8 µM in [7] and 29.3 µM in assay [8].
`CC(C)=[CH][Sb]([Br])([CH]=C(C)C)([CH]=C(C)C)[CH]=C(C)C`: the GI50 is 11.7 µM in assay [1]; 16.4 µM in [2]; 34.4 µM in assay [3]; 31.6 µM in assay [4]; 17.3 µM in [5]; 14.7 µM in assay [6]. Also, the GI50 is 21.2 µM in assay [7] and 10.9 µM in assay [8]. Also, the TGI was 74.5 µM in [1]; 54.4 µM in [2]; > 100 µM in assay [3]; > 100 µM in [4]; 53.4 µM in assay [5]; 89.4 µM in [6]. The figures for the TGI in assay [7] and in assay [8] were 81.1 µM and > 100 µM, respectively.
Turning to `CCOC(=O)c1c(C)n(Cc2ccc(OC)cc2)c2c1cc(O)c1[nH]c3c(c12)CCCC3`, the GI50 in assay [1] is 3.47 µM; in assay [2], 8.63 µM; in assay [3] it was 13.1 µM; in [9], 2.86 µM; in assay [4] it was 3.91 µM; in assay [5], 13.7 µM. The GI50 in assay [6] is 4.84 µM; in assay [10], 27.5 µM; in assay [7] it was 11.6 µM. Also, the TGI in [1] was 18.7 µM; in assay [2], 27.8 µM; in [3], 49.4 µM; in [9], 37.4 µM; in assay [4], 16.6 µM; in assay [5], 42.8 µM. Further, the TGI in assay [6] is 65.2 µM; in [10], > 100 µM; in assay [7], 43.5 µM.
Consider `COc1cc(C(=O)O[C@H](C(N)=O)[C@]2(C)CO2)c2ccccc2c1`, for which the GI50 in assay [1] is 14.2 µM; in assay [2], 10.4 µM; in assay [3] it was 5.08 µM; in assay [9], 25 µM; in [4], 24.7 µM; in assay [5] it was 20.4 µM. Moreover, the GI50 was 15.8 µM in [6] and 17.3 µM in assay [7]. For the same molecule, the TGI in assay [1] is 36.7 µM; in assay [2] it was 57.1 µM; in assay [3], 17.3 µM; in assay [9], > 100 µM; in [4] it was 59.8 µM; in assay [5] it was 37.9 µM. For the same molecule, the TGI in [6] came out at 30.3 µM; in assay [7], 47.3 µM.
Take `COc1ccc(-n2c(SCc3cc(OC)c(OC)c(OC)c3)nc3ccc(C)cc3c2=O)cc1`: the GI50 in assay [1] was 55.2 µM; in assay [2], 3.83 µM; in assay [3], > 100 µM; in assay [9] it was 2.83 µM; in assay [4], 17.2 µM; in assay [5], 4.36 µM. Further, the GI50 is > 100 µM in assay [6], > 100 µM in [10] and 70.4 µM in assay [7]. The TGI in assay [1], in assay [2], in assay [3], in [9], in assay [4] and in assay [5] was > 100 µM each time. Moreover, the TGI in assay [6], in [10] and in assay [7] was > 100 µM throughout.
On to `COC(=O)CSc1n[nH]c(-c2ccc(O)c([N+](=O)[O-])c2)n1`, for which the TGI in assay [1], in assay [2], in assay [3], in assay [4], in [5] and in assay [6] was > 100 µM throughout. The TGI in assay [7] and in assay [8] was > 100 µM in each case.
Turning to `CC(C)(C)C1=CC(=CC=C2C=CN(CCCCCCCCCCCO)C=C2)C=C(C(C)(C)C)C1=O`, the TGI in [1] was 3.83 µM; in assay [2], 4.55 µM; in assay [3], 3.94 µM; in [9] it was 3.68 µM; in assay [4], 1.69 µM; in [5], 2.95 µM. The TGI in assay [6] came to 3.15 µM; in assay [10], 20.7 µM; in assay [7], 2.47 µM.
For `COc1cc(-c2c(C#N)c(N)n3c(nc4ccccc43)c2C#N)cc(Br)c1OC`, the GI50 in [1] was 77.5 µM; in assay [3], 6.24 µM; in assay [9] it was 4.4 µM; in assay [4], > 100 µM; in assay [5], > 100 µM; in assay [6], > 100 µM. For the same molecule, the GI50 in assay [7] is 4.37 µM. Besides, the TGI in assay [1], in assay [3], in assay [9], in [4], in assay [5] and in [6] was > 100 µM throughout. Besides, in assay [7], the TGI was > 100 µM.
With `COC(=O)C(=O)C(C(=O)C=C(C)C)C(=O)C(=O)Nc1ccc(Cl)cc1C` (stereo not drawn), the TGI in assay [1], in [2], in [3], in [4], in assay [5] and in assay [6] was > 100 µM each time. The results for the TGI in assay [7] and in [8] were > 100 µM and 45.2 µM, respectively.
With `COc1cc2c(/C=C3/C(=O)Nc4cccc(Cl)c43)c(Cl)n(Cc3ccccc3)c2cc1C`, the GI50 in [1] was 13.1 µM; in assay [2] it was 5.46 µM; in [3] it was 3.59 µM; in assay [9] it was 4.29 µM; in assay [4], 4.42 µM; in assay [5], 2.11 µM. Further, the GI50 was 9.07 µM in assay [6], 11.2 µM in [10] and 5.05 µM in assay [7]. The TGI is > 71.5 µM in [1]; > 56.3 µM in assay [2]; 26.7 µM in [3]; > 38 µM in assay [9]; 23.7 µM in [4]; 21.2 µM in [5]. The TGI in assay [6] is > 100 µM; in assay [10], > 100 µM; in [7] it was > 29 µM.
As for `CC(C)CC(N)C(=O)O` (stereo not drawn), the TGI in [1], in [2], in [3], in assay [9], in [4] and in assay [5] was > 100 µM in each case. Moreover, the TGI in assay [6], in assay [10] and in assay [7] was > 100 µM each time.
As for `CN(C)C(=S)/N=c1\ss/c(=N\C(=S)N(C)C)n1-c1ccc2c(c1)OCO2`, the TGI in [1], in [3], in [4], in [5], in assay [6] and in assay [7] was > 100 µM throughout. In addition, the TGI in [8] is > 100 µM.
For `N#C/C(C(=S)Nc1ccccc1)=C1/NN=C2c3ccccc3C(=O)NN21`, the GI50 in assay [1] was 35.3 µM; in [2], 26.3 µM; in assay [3] it was 38 µM; in [4], 19.9 µM; in assay [5] it was 17.1 µM; in assay [6] it was 30.4 µM. In addition, the GI50 in assay [10] was 28.8 µM; in assay [7] it was 0.512 µM; in assay [8], 19.5 µM. In addition, the TGI was > 100 µM in [1]; 73.2 µM in [2]; > 100 µM in [3]; 52.8 µM in [4]; 49.5 µM in assay [5]; > 100 µM in assay [6]. The TGI was > 100 µM in assay [10], 22.9 µM in [7] and > 100 µM in [8].
`COC(=O)C1=C(c2ccc3c(c2)OCO3)O[C@H](c2ccc3c(c2)OCO3)[C@H]1COC(C)=O`: the TGI in [1], in assay [2], in [3], in assay [4], in assay [5] and in [7] was > 100 µM throughout. The TGI in assay [8] was > 100 µM.
